From article doi:10.1101/2024.08.19.608619, “Discovery of potent SARS-CoV-2 nsp3 macrodomain inhibitors uncovers lack of translation to cellular antiviral response” (bioRxiv, 2024)
≈ marks a conversion by molar mass, not a printed value. Like-named read-outs stand apart in the source and are kept apart here.

How the values were obtained:
[1] = tested on: SARS-CoV-2, isolate USA-WA1/2020; test: microbe, parasite or virus in culture; assay type: cell-based; conditions: HeLa-ACE2 SARS-CoV-2 antiviral effect without P-gp inhibitor; for perc_max_measured: maximum measured response of dose series; for perc_min_measured: minimum measured response of dose series; for EC50: read-out: ec50; for EC90: read-out: ec90
[2] = tested on: SARS-CoV-2; test: Antiviral effect in iPSC-derived pneumocyte system; assay type: cell-based; conditions: iPSC pneumocytes SARS-CoV-2 antiviral effect; for perc_max_measured: maximum measured response of dose series; for perc_min_measured: minimum measured response of dose series
[3] = Hepatic microsomal stability, HLM; assay type: in vitro ADME, human; conditions: In vitro human liver microsomal stability
[4] = Hepatic microsomal stability, MLM; assay type: in vitro ADME; conditions: In vitro mouse liver microsomal stability
[5] = tested on: iPSC pneumocytes; test: iPSC pneumocytes cytotoxicity; assay type: cell-based; conditions: for perc_max_measured: highest measured response of the dose series; for perc_min_measured: lowest measured response of the dose series
From the text: (§1) Supplement media-1.zip/Cytotoxicity.csv, table | column: cc10; cc50; perc_min_measured; perc_max_measured

[6] = tested on: HeLa-ACE2 cells; conditions: protocol HeLa-ACE2 cytotoxicity; for perc_max_measured: highest measured response of the dose series; for perc_min_measured: lowest measured response of the dose series
[7] = tested on: MERS-CoV; assay type: cell-based; conditions: Vero 76 MERS-CoV antiviral effect
[8] = LogD; conditions: pH 7.4; In vitro LogD
[9] = tested on: Vero 76
[10] = in vitro; set-up: Cytotoxicity in iPSC-derived pneumocytes, CC50; conditions: human, ipsc-derived pneumocytes; ASAP-0008327-001=ASAP-0011153-001; read-out: 50.0
[11] = in vitro; conditions: human, hela-ace2 cells, 50.0
[12] = In vitro kinetic solubility; conditions: In vitro kinetic solubility, ph 7.4
[13] = Permeability Papp (AB) MDR1/MDCKII; conditions: In vitro MDR1-MDCKII permeability, mean
[14] = molecular target: SARS-CoV-2 nsp3-mac1 (Severe acute respiratory syndrome coronavirus 2, UniProt P0DTD1); test: biochemical; conditions: IC50, nsp3-mac1 activity, Figures 1-3 and text
[15] = iPSC pneumocytes cytotoxicity; assay type: cell-based; conditions: protocol iPSC pneumocytes cytotoxicity
From the text: as §1

[16] = in vitro; conditions: human
[17] = Severe acute respiratory syndrome coronavirus 2
[18] = protocol iPSC pneumocytes cytotoxicity

## CNC(=O)c1c[nH]c2ncnc(N[C@H](c3ccc4c(c3)S(=O)(=O)CCC4)C(C)C)c12 (single isomer, unassigned) [ASAP-0011153]
[1]
  perc_max_measured: 109.331%
  perc_min_measured: 66.391%
  EC50: > 20 µM
  EC90: > 20 µM
[2]
  EC50: 6.74 µM
  EC90: > 50 µM
  perc_max_measured: 88.736%
  perc_min_measured: 31.934%
[3]
  clint: 258.0 µL/min/mg
  perc_remaining: 1.0%
  t_half: 6.5 min
[3]; no cofactor
  perc_remaining_no_cofactor: 94.0%
[4]
  clint: 770.0 µL/min/mg
  perc_remaining: 0.0%
  t_half: 2.2 min
[4]; no cofactor
  perc_remaining_no_cofactor: 99.0%
[5]
  CC50: > 50 µM
  cc10: > 50.0 µM
  perc_max_measured: 111.957%
  perc_min_measured: 100.111%
[6]
  CC50: > 20 µM
  cc10: > 20.0 µM
  perc_max_measured: 96.782%
  perc_min_measured: 85.977%
[7]
  EC50: > 32 µM
[8]
  logd: 2.7
[9]
  CC50: > 32 µM
[10]
  CC50: > 50 µM
[11]
  CC50 at 24 h: > 20 µM
[12]
  solubility_mean: 336 µM (≈ 144 µg/mL)
[13]; A to B
  papp_a_to_b_mean: 1.61 ×10⁻⁶ cm/s
[13]; recovery A to B
  perc_recovery_a_to_b_mean: 92.7%

## CC(C)C(Nc1ncnc2[nH]ccc12)c1ccc2c(c1)NC(=O)CO2 (stereo not shown) [ASAP-0008302]
[14]
  IC50: 710 nM
[1]
  perc_max_measured: 123.573%
  perc_min_measured: 69.199%
[1]; [17]
  EC50: > 50 µM
  EC90: > 50 µM
[2]; Severe acute respiratory syndrome coronavirus 2, iPSC
  EC50: > 50 µM
[2]; [17]
  EC90: > 50 µM
[2]
  perc_max_measured: 145.289%
  perc_min_measured: 92.172%
[15]
  CC50: > 50 µM
[5]; [18]
  cc10: > 50.0 µM
  perc_max_measured: 98.455%
  perc_min_measured: 82.288%
[6]
  cc10: > 50.0 µM
  perc_max_measured: 107.359%
  perc_min_measured: 95.445%
[16]
  CC50: > 50 µM
